Tests used:
Assay type in all cases: cell-based, human
PC-3 cells = experiment: Intracellular active oxygen (ROS) production, H2DCFDA, PC-3 cells; details: DHMBA 1, 10, 100, and 1000 μM, 24 hours
Procedure: (§1) The intracellular active oxygen (reactive oxygen species: ROS) was measured using an ROS measurement kit (MAK144-1 Kit, Sigma-Aldrich) using pro-fluorescent substrate H2DCFDA. The PC-3 and DU-145 cells (the cell number of 2.5×10^4/per well, in 0.1 ml of a culture fluid per hole using a 96-hole plate) were cultured in a DMEM culture fluid (containing 10% of FBS, 1% of P/S, and 1% of fungizone) containing the DHMBA (0.1, 1, 10, 100, or 1000 μM) under 5% of CO2, at 37° C., for 24 hours. After the culture, the cells were washed with PBS, 0.1 ml and 25 μM of an H2DCFDA solution was added, and incubation was performed for 45 minutes. Afterwards, the cells were washed with PBS, and as the amount of active oxygen produced in the cells, fluorescence intensity was measured using a fluorescence measurement plate reader at a wavelength Ex/Em=485/535 nm.
(§2) The PC-3 and DU-145 cells (2.5×10^4/0.1 ml of a culture fluid per hole using a 96-hole plate) were cultured under 5% of CO2, at 37° C., for 24 hours in a DMEM culture fluid (containing 10% of FBS, 1% of P/S, and 1% of fungizone) containing the DHMBA (0.1, 1, 10, 100, or 1000 μM). […] After the cells were washed with PBS, a fluorescence intensity of the cells was measured using a fluorescence measurement plate reader at a wavelength Ex/Em=485/535 nm. […]

DU-145 cells [1] = experiment: Cell death of sub-confluent DU-145 cells (adherent cell counting)
Procedure: The PC-3 and DU-145 cells (1×10^5/in 1 ml of a culture fluid per hole using a 24-hole plate) were cultured in a DMEM culture fluid (containing 10% of FBS, 1% of P/S, and 1% of fungizone) under 5% of CO2, at 37° C., for three days, and when the cells reached sub-confluence, the culture fluid was exchanged for the one containing the DHMBA (0.01, 0.1, 1, 10, 100, or 1000 μM), and the cells were cultured for 24 and 48 hours. After the culture, the cells adhering to the bottom surface of the dish were removed and counted. In another experiment, after the culture for three days, when the cells reached sub-confluence, the culture fluid was exchanged for a culture fluid containing the DHMBA (1 or 10 μM) and a caspase-3 inhibitor (10 μM), and the cells were counted after the culture for 48 hours. Further, after the culture for three days, when the cells reached sub-confluence, the culture fluid was exchanged for a culture fluid obtained by adding gemcitabine (0.1, 1, 10, 50 or 100 nM) or CH223191 (1, 10, and 25 μM) to a DMEM culture fluid containing the DHMBA (1 or 10 μM) or not containing the DHMBA, and the cells were counted after the culture for 48 hours. […]

DU-145 cells [2] = experiment: Intracellular active oxygen (ROS) production, H2DCFDA, DU-145 cells; details: DHMBA 1, 10, 100, and 1000 μM, 24 hours
Procedure: as §1, §2

Q: With `COc1c(O)cc(CO)cc1O` [DHMBA, 3,5-dihydroxy-4-methoxybenzyl alcohol] as the molecule, how does the “amount of intracellular active oxygen production” value (PC-3 cells) read?
A: significant inhibition

Q: And the cell death (DU-145 cells [1]; DHMBA 1, 10, 100, or 1000 μM, 24 and 48 hours)?
A: significantly increased

Q: What about the “increase of cell death in the presence of caspase-3 inhibitor” value (DU-145 cells [1]; DHMBA 1 or 10 μM with caspase-3 inhibitor 10 μM, 48 hours) of the same molecule?
A: not caused

Q: What about the “amount of intracellular active oxygen production” value (DU-145 cells [2]) of the same molecule?
A: significant inhibition

Source: patent publication US20240350430A1, “GROWTH INHIBITOR OF METASTATIC HUMAN PROSTATE CANCER CELLS” (Watanabe Oyster Laboratory Co., Ltd., priority 2021, published 2024)
